Reference: patent US5439816A, “Carboxymethylcellulase isolated from bacillus sp. PKM-5430 (FERM BP-4087)” (Kao Corporation, priority 1991, dated 1995)
Read-outs that look alike come from different tables or passages of the source.

Legend:
[1] = test system: Carboxymethylcellulase 5430; assay: Effects of metal ions on carboxymethylcellulase activity of Carboxymethylcellulase 5430; assay type: biochemical, Bacillus sp. PKM-5430; conditions: for Relative activity (%): 20 minutes at 40° C., pH 9.0, none = 100
Description: (§1) Activities were determined by the DNS method (J. R. Summer and G. F. Somers, Laboratory Experiments in Biological Chemistry, Academic Press, New York, U.S.A., 1944). Namely, 0.1 ml of a suitably diluted enzyme solution was added to 0.9 ml of a 1.1% (w/v) solution of a CMC (A01MC) substrate in 0.1M glycine-NaOH buffer (pH: 9.0). After a 20-minute reaction at 40° C., 1 ml of 0.05% (w/v) 3,5-dinitrosalicylic acid solution (product of Wako Pure Chemical Industries, Ltd.) was added, and the resulting mixture was immediately placed in a boiling water bath for 5 minutes, followed by cooling in an iced water bath. Then, 4 ml of deionized water was added further, afterwhich, colorimetry was conducted by measuring an absorbance at 535 nm. With respect to enzymatic activity, the amount of enzyme, which liberates reducing sugars corresponding to 1 μmole of glucose for 1 minute, was defined as 1 unit.
Among the various metal ions tested, Hg^2+, at 1 mM, inhibited the activity of the enzyme by about 75%. On the contrary, Co^+2, at 1 mM stimulated the activity of the enzyme by about 30% and Mn^+2, at 1 mM, also stimulated the activity by about 50%.

[2] = test system: Carboxymethylcellulase 5812; assay: Effects of metal ions on carboxymethylcellulase activity of Carboxymethylcellulase 5812; assay type: biochemical, Bacillus sp. PKM-5812; conditions: for Relative activity (%): 20 minutes at 40° C., pH 9.0, none = 100
Description: as §1
Among the various metal ions tested, Hg^2+, at 1 mM, inhibited the activity of the enzyme by about 75%. On the contrary, Co^+2, at 1 mM stimulated the activity of the enzyme by about 50%, and Mn^+2, at 1 mM, also stimulated the activity by 53%.

[3] = test system: Carboxymethylcellulase 5430; assay: Effects of surfactants on carboxymethylcellulase activity of Carboxymethylcellulase 5430; assay type: biochemical, Bacillus sp. PKM-5430; conditions: for Relative activity (%): surfactant 0.05%, 20 minutes at 40° C., pH 9.0, none = 100
Description: as §1
In particular, SDS and the fatty acid salt stimulated the activity of the enzyme by 26% and 45%, respectively.

[4] = test system: Carboxymethylcellulase 5812; assay: Effects of surfactants on carboxymethylcellulase activity of Carboxymethylcellulase 5812; assay type: biochemical, Bacillus sp. PKM-5812; conditions: for Relative activity (%): surfactant 0.05%, 20 minutes at 40° C., pH 9.0, none = 100
Description: as §1
In particular, SDS and the fatty acid salt stimulated the activity of the enzyme by 21% and 23%, respectively.

[5] = test system: Carboxymethylcellulase 5430; assay type: biochemical, Bacillus sp. PKM-5430
Description: as §1
(§2) However, the activity of the enzyme was not inhibited by the other inhibitors.
(§3) *: The enzyme was pretreated at pH 5.5 (50 mM acetate buffer).

[6] = test system: Carboxymethylcellulase 5812; assay type: biochemical, Bacillus sp. PKM-5812
Description: as §1, §2, §3

[7] = test system: Carboxymethylcellulase 5430; assay: Substrate specificity of Carboxymethylcellulase 5430 (hydrolytic activities, DNS method / p-nitrophenol release); assay type: biochemical, Bacillus sp. PKM-5430
Description: as §1
(§4) Sodium hydroxide- and phosphoric acid-swollen celluloses were prepared according to the method of Tomita et al. [Y. Tomita, H. Suzuki and K. Nisizawa, J. Biochem., 78, 499(1975)]. The reducing sugar liberated was determined in a similar manner to that of the method (a) except that substrate solutions containing cellulose substrates were used, and the reaction was conducted at 30° C.
(§5) The reducing sugar liberated was determined in a similar manner to that of the method (a) except that substrate solutions containing polysaccharides were used, and the reaction was conducted at 30° C.
(§6) A suitably diluted enzyme solution was added to a solution of 8 mM of a PNPG or PNPC substrate in 0.1M phosphate buffer of pH 7.0 to react them for 20 minutes at 30° C. The p-nitrophenol liberated was determined at 400 nm and the amount formed was calculated.
(§7) The enzyme is also active toward cellobiose, PNPG, PNPC, cellulose powder and phosphoric acid-swollen cellulose.

[8] = test system: Carboxymethylcellulase 5812; assay: Substrate specificity of Carboxymethylcellulase 5812 (hydrolytic activities, DNS method / p-nitrophenol release); assay type: biochemical, Bacillus sp. PKM-5812
Description: as §1, §4, §5, §6, §7

[9] = test system: Carboxymethylcellulase 5430; assay: Effects of chelating agents, thiol reagents, additives and proteinases on Carboxymethylcellulase 5430; assay type: biochemical, Bacillus sp. PKM-5430; conditions: for stimulated the activity of the enzyme by: added at 1 mM; for Relative activity (%): none = 100
Description: as §1
(§8) On the other hand, 2-mercaptoethanol and dithiothreitol, each added at 1 mM, stimulated the activity of the enzyme by 39% and 50%, respectively. It was not observed that the proteinases such as alkalase, maxatase, savinase and Protease API-21 inactivated the enzyme of this invention under this reaction conditions.

[10] = test system: Carboxymethylcellulase 5812; assay: Effects of chelating agents, thiol reagents, additives and proteinases on Carboxymethylcellulase 5812; assay type: biochemical, Bacillus sp. PKM-5812; conditions: for stimulated the activity of the enzyme by: added at 1 mM; for Relative activity (%): none = 100
Description: as §1
as §8, with “52%” for “39%”, “84%,” for “50%,”

[11] = metal ion 1 mM, listed as Fe^3+
[12] = inhibitor 0.1 mM, enzyme pretreated at pH 5.5 (50 mM acetate buffer), none = 100
[13] = substrate 8 mM, 0.1M phosphate buffer pH 7.0, 30° C., activity toward CMC taken as 100%
[14] = reagent 1 mM, 20 minutes at 40° C., pH 9.0
[15] = inhibitor 1.0 mM, 20 minutes at 40° C., pH 9.0, none = 100
[16] = substrate 0.1%, activity toward CMC at 30° C. taken as 100%
[17] = reagent 0.01%, 20 minutes at 40° C., pH 9.0

Molecule: [Pb+2] [Pb^2+]
- Relative activity (%) ([1]; metal ion 1 mM): 81%
- Relative activity (%) ([2]; metal ion 1 mM): 93%

Molecule: [Na+] [Na^+]
- Relative activity (%) ([1]; metal ion 50 mM): 121%
- Relative activity (%) ([2]; metal ion 50 mM): 120%

Molecule: [Zn+2] [Zn^2+]
- Relative activity (%) ([1]; metal ion 1 mM): 92%
- Relative activity (%) ([2]; metal ion 1 mM): 96%

Molecule: [Fe+2] [Fe^2+]
- Relative activity (%) ([1]; metal ion 1 mM): 105%
- Relative activity (%) [1, 11]: 110%
- Relative activity (%) ([2]; metal ion 1 mM): 101%
- Relative activity (%) [2, 11]: 104%

Molecule: sodium polyoxyethylene alkyl sulfate [ES]
- effect of surfactants on enzyme activity [3]: either scarcely inhibited or stimulated
- Relative activity (%) [3]: 102%
- effect of surfactants on enzyme activity [4]: either scarcely inhibited or stimulated
- Relative activity (%) [4]: 112%

Molecule: CCCCCCCCCCCCOS(=O)(=O)[O-].[Na+] [SDS, sodium dodecyl sulfate]
- effect of surfactants on enzyme activity [3]: either scarcely inhibited or stimulated
- stimulated the activity of the enzyme by [3]: 26%
- Relative activity (%) [3]: 126%
- effect of surfactants on enzyme activity [4]: either scarcely inhibited or stimulated
- stimulated the activity of the enzyme by [4]: 21%
- Relative activity (%) [4]: 121%

Molecule: O=C1CCC(=O)N1Br [N-Bromosuccinimide]
- inhibited the activity of this enzyme by [5]: 97%
- Relative activity (%) [5, 12]: 4%
- inhibited the activity of this enzyme by [6]: 97%
- Relative activity (%) [6, 12]: 3%

Molecule: O=[N+]([O-])c1ccc(O[C@@H]2O[C@H](CO)[C@@H](O)[C@H](O)[C@H]2O)cc1 [PNPG, p-nitrophenyl-β-D-glucopyranoside]
- activity of the enzyme toward substrate [7]: active
- Relative activity (%) [7, 13]: 0.8%
- activity of the enzyme toward substrate [8]: active
- Relative activity (%) [8, 13]: 0.2%

Molecule: sodium α-olefin sulfonate [AOS]
- effect of surfactants on enzyme activity [3]: either scarcely inhibited or stimulated
- Relative activity (%) [3]: 107%
- effect of surfactants on enzyme activity [4]: either scarcely inhibited or stimulated
- Relative activity (%) [4]: 105%

Molecule: sodium linear alkylbenzenesulfonate [LAS]
- effect of surfactants on enzyme activity [3]: either scarcely inhibited or stimulated
- Relative activity (%) [3]: 105%
- effect of surfactants on enzyme activity [4]: either scarcely inhibited or stimulated
- Relative activity (%) [4]: 96%

Molecule: OCCS [2-Mercaptoethanol]
- stimulated the activity of the enzyme by [9]: 39%
- Relative activity (%) [9, 14]: 139%
- stimulated the activity of the enzyme by [10]: 52%
- Relative activity (%) [10, 14]: 152%

Molecule: [Mg+2] [Mg^2+]
- Relative activity (%) ([1]; metal ion 1 mM): 108%
- Relative activity (%) ([2]; metal ion 1 mM): 109%

Molecule: sodium α-sulfonated fatty acid ester [α-SFE]
- effect of surfactants on enzyme activity [3]: either scarcely inhibited or stimulated
- Relative activity (%) [3]: 116%
- effect of surfactants on enzyme activity [4]: either scarcely inhibited or stimulated
- Relative activity (%) [4]: 97%

Molecule: [Cu+2] [Cu^2+]
- Relative activity (%) ([1]; metal ion 1 mM): 97%
- Relative activity (%) ([2]; metal ion 1 mM): 98%

Molecule: O=C(O)CN(CCOCCOCCN(CC(=O)O)CC(=O)O)CC(=O)O [EGTA]
- effect of chelating agents on enzyme activity [9]: somewhat inhibited
- Relative activity (%) [9, 14]: 66%
- effect of chelating agents on enzyme activity [10]: somewhat inhibited
- Relative activity (%) [10, 14]: 73%

Molecule: sodium alkyl sulfate [AS]
- effect of surfactants on enzyme activity [3]: either scarcely inhibited or stimulated
- Relative activity (%) [3]: 123%
- effect of surfactants on enzyme activity [4]: either scarcely inhibited or stimulated
- Relative activity (%) [4]: 112%

Molecule: O=S(=O)(F)Cc1ccccc1 [Phenylmethanesulfonyl fluoride, phenylmethanesulfonyl fluoride]
- inhibited the activity of this enzyme by [5]: 24%
- Relative activity (%) [5, 15]: 76%
- Relative activity (%) [6, 15]: 107%

Molecule: O[C@H](CS)[C@H](O)CS (racemic) [Dithiothreitol]
- stimulated the activity of the enzyme by [9]: 50%
- Relative activity (%) [9, 14]: 150%
- stimulated the activity of the enzyme by [10]: 84%
- Relative activity (%) [10, 14]: 184%

Molecule: Cl.NO [Hydroxylamine hydrochloride]
- Relative activity (%) [5, 15]: 133%
- Relative activity (%) [6, 15]: 123%

Molecule: [Al+3] [Al^3+]
- Relative activity (%) ([1]; metal ion 1 mM): 101%
- Relative activity (%) ([2]; metal ion 1 mM): 97%

Molecule: [K+] [K^+]
- Relative activity (%) ([1]; metal ion 50 mM): 116%
- Relative activity (%) ([2]; metal ion 50 mM): 126%

Molecule: c1cnc2c(c1)ccc1cccnc12 [o-Phenanthroline]
- Relative activity (%) [9, 14]: 98%
- Relative activity (%) [10, 14]: 100%

Molecule: [Hg+2] [Hg^2+]
- inhibited the activity of the enzyme by ([1]; at 1 mM): about 75%
- Relative activity (%) ([1]; metal ion 1 mM): 25%
- inhibited the activity of the enzyme by ([2]; at 1 mM): about 75%
- Relative activity (%) ([2]; metal ion 1 mM): 27%

Molecule: O=C(O)CI [Monoiodo acetic acid]
- Relative activity (%) ([5]; pH 9): 117%
- Relative activity (%) ([6]; pH 9): 104%

Molecule: [N-]=[N+]=[N-] [Sodium azide]
- Relative activity (%) [5, 15]: 118%
- Relative activity (%) [6, 15]: 117%

Molecule: O=C(O)c1cc[c]([Hg][Cl])cc1 [4-Chloromercuribenzoic acid]
- Relative activity (%) [5, 15]: 118%
- Relative activity (%) [6, 15]: 105%

Molecule: [Mn+2] [Mn^2+]
- stimulated the activity of the enzyme by ([1]; at 1 mM): about 50%
- Relative activity (%) ([1]; metal ion 1 mM): 130%
- stimulated the activity of the enzyme by ([2]; at 1 mM): 53%
- Relative activity (%) ([2]; metal ion 1 mM): 153%

Molecule: O=C(O)CN(CCN(CC(=O)O)CC(=O)O)CC(=O)O [EDTA]
- effect of chelating agents on enzyme activity [9]: somewhat inhibited
- Relative activity (%) [9, 14]: 71%
- effect of chelating agents on enzyme activity [10]: somewhat inhibited
- Relative activity (%) [10, 14]: 79%

Molecule: [Ca+2] [Ca^2+]
- Relative activity (%) ([1]; metal ion 1 mM): 108%
- Relative activity (%) ([2]; metal ion 1 mM): 108%

Molecule: [Co+2] [Co^2+]
- stimulated the activity of the enzyme by ([1]; at 1 mM): about 30%
- Relative activity (%) ([1]; metal ion 1 mM): 149%
- stimulated the activity of the enzyme by ([2]; at 1 mM): about 50%
- Relative activity (%) ([2]; metal ion 1 mM): 150%

Molecule: OC[C@H]1O[C@@H](O[C@H]2[C@H](O)[C@@H](O)C(O)O[C@@H]2CO)[C@H](O)[C@@H](O)[C@@H]1O (stereo partly shown) [Cellobiose]
- activity of the enzyme toward substrate [7]: active
- Relative activity (%) [7, 16]: 0.4%
- activity of the enzyme toward substrate [8]: active
- Relative activity (%) [8, 16]: 0.4%

B1: Alkalase: proteinase (protein, UniProt P00780 106-379, looked up)
Subtilisin Carlsberg: AQTVPYGIPLIKADKVQAQGFKGANVKVAVLDTGIQASHPDLNVVGGASFVAGEAYNTDGNGHGTHVAGTVAALDNTTGVLGVAPSVSLYAVKVLNSSGSGSYSGIVSGIEWATTNGMDVINMSLGGASGSTAMKQAVDNAYAKGVVVVAAAGNSGSSGNTNTIGYPAKYDSVIAVGAVDSNSNRASFSSVGAELEVMAPGAGVYSTYPTNTYATLNGTSMASPHVAGAAALILSKHPNLSASQVRNRLSSTATYLGSSFYYGKGLINVEAAAQ
- inactivation of the enzyme by proteinases ([9]; 20 minutes at 40° C., pH 9.0): not observed
- Relative activity (%) [9, 17]: 111%
- inactivation of the enzyme by proteinases ([10]; 20 minutes at 40° C., pH 9.0): not observed
- Relative activity (%) [10, 17]: 107%
